Measured values taken from patent publication US11000033B2, “Ketone or oxime compound, and herbicide” (NISSAN CHEMICAL CORPORATION, priority 2014, dated 2021).

Columns and labels:
Type in all cases: in vivo
[1] = tested on: Chenopodium album; assay: Test Example 4: herbicidal effect by soil treatment (symbol O); details: for Herbicidal effect grade, O: Chenopodium album: application herbicide amount 320 g/ha
Outline: (§1)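 Seeds were sown in sterilized diluvial soil, covered with about 1.5 cm of soil, and the soil surface was sprayed with a water-diluted emulsion of the compound at a predetermined rate. Plants grew in a greenhouse at 25° C. to 30° C.; effects were scored visually 3 weeks after application.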

[2] = tested on: rice plant; assay: Test Example 5: effect on crop by foliage application, plastic box (symbol b); details: 320 g/ha, 3 weeks after application
Outline: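 Box culture: sterile diluvial soil, seeds spot-sown, ~1.5 cm cover, raised under glass at 25–30° C.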

[3] = tested on: Digitaria ciliaris; assay: Test Example 4: herbicidal effect by soil treatment (symbol F); details: for Herbicidal effect grade, F: Digitaria ciliaris: application herbicide amount 320 g/ha
Outline: as §1

[4] = tested on: Echinochloa oryzacola Vasing.; assay: Test Example 2: herbicidal activity, application during weed generation in submerged conditions (symbol A); details: Table 23; application herbicide amount 320 g/ha; grade 0-5 by criteria of Test Example 1
Outline: (§2)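 Steps: fill pots with alluvial soil; add water to 4 cm depth; co-sow the three weeds; grow at 25° C. to 30° C. under glass; at 1–2 leaves, dose the floodwater with diluted emulsion; rate damage visually after 3 weeks.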

[5] = tested on: Monochoria vaginalis; assay: Test Example 2: herbicidal activity, application during weed generation in submerged conditions (symbol C); details: Table 23; application herbicide amount 320 g/ha; grade 0-5 by criteria of Test Example 1
Outline: as §2

[6] = tested on: soybean; assay: Test Example 4: effect on crop by soil treatment (symbol d); details: for Effect on crop grade, d: soybean: application herbicide amount 320 g/ha
Outline: (§3)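 Sterilized diluvial soil, spot sowing, ~1.5 cm soil cover; greenhouse 25–30° C.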

[7] = tested on: Veronica persica; assay: Test Example 5: herbicidal effect by foliage application, plastic box (symbol R); details: 320 g/ha, 3 weeks after application
Outline: (§4)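 Emulsion formulation, diluted with water to the intended rate, was applied uniformly to leaves by small sprayer. Recipients were 14-day greenhouse-grown seedlings (25° C. to 30° C.). Assessment followed at 3 weeks.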

[8] = tested on: Apera spica-venti; assay: Test Example 4: herbicidal effect by soil treatment (symbol L); details: for Herbicidal effect grade, L: Apera spica-venti: application herbicide amount 320 g/ha
Outline: as §1

[9] = tested on: Avena fatua; assay: Test Example 5: herbicidal effect by foliage application, plastic box (symbol I); details: 320 g/ha, 3 weeks after application
Outline: as §4

[10] = tested on: Abutilon theophrasti; assay: Test Example 4: herbicidal effect by soil treatment (symbol M); details: for Herbicidal effect grade, M: Abutilon theophrasti: application herbicide amount 320 g/ha
Outline: as §1

[11] = tested on: Echinochloa crus-galli var. crus-galli; assay: Test Example 3: herbicidal effect by foliage application, Wagner pot (symbol H); details: application herbicide amount 320 g/ha, Table 24
Outline: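 Post-emergence, paddy-type test: seedlings 14 d old in shallow-flooded (0.1–0.5 cm) alluvial soil, 25–30 °C greenhouse. Emulsion diluted to target rate, sprayed on leaves. Read-out: visual effect on each species at 3 weeks, per set criteria.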

[12] = tested on: Setaria viridis; assay: Test Example 4: herbicidal effect by soil treatment (symbol G); details: for Herbicidal effect grade, G: Setaria viridis: application herbicide amount 320 g/ha
Outline: as §1

[13] = tested on: Stellaria media; assay: Test Example 5: herbicidal effect by foliage application, plastic box (symbol P); details: 320 g/ha, 3 weeks after application
Outline: as §4

[14] = tested on: Lolium multiflorum Lam.; assay: Test Example 4: herbicidal effect by soil treatment (symbol K); details: for Herbicidal effect grade, K: Lolium multiflorum Lam.: application herbicide amount 320 g/ha
Outline: as §1

[15] = tested on: Galium spurium; assay: Test Example 4: herbicidal effect by soil treatment (symbol Q); details: for Herbicidal effect grade, Q: Galium spurium: application herbicide amount 320 g/ha
Outline: as §1

[16] = tested on: Apera spica-venti; assay: Test Example 5: herbicidal effect by foliage application, plastic box (symbol L); details: 320 g/ha, 3 weeks after application
Outline: as §4

[17] = tested on: beet; assay: Test Example 4: effect on crop by soil treatment (symbol f); details: for Effect on crop grade, f: beet: application herbicide amount 320 g/ha
Outline: as §3

[18] = tested on: Chenopodium album; assay: Test Example 5: herbicidal effect by foliage application, plastic box (symbol O); details: 320 g/ha, 3 weeks after application
Outline: as §4

[19] = tested on: Abutilon theophrasti; assay: Test Example 5: herbicidal effect by foliage application, plastic box (symbol M); details: 320 g/ha, 3 weeks after application
Outline: as §4

Compound	Herbicidal effect grade, O: Chenopodium album [1]	b: directly sowed rice plant, effect on crop grade [2]	Herbicidal effect grade, F: Digitaria ciliaris [3]	Herbicidal effect grade, A: Echinochloa oryzacola Vasing. [4]	Herbicidal effect grade, C: Monochoria vaginalis [5]	Effect on crop grade, d: soybean [6]	R: Veronica persica, herbicidal effect grade [7]	Herbicidal effect grade, L: Apera spica-venti [8]	I: Avena fatua, herbicidal effect grade [9]	Herbicidal effect grade, M: Abutilon theophrasti [10]	H (Echinochloa crus-galli var. crus-galli) herbicidal effect grade [11]	Herbicidal effect grade, G: Setaria viridis [12]	P: Stellaria media, herbicidal effect grade [13]	Herbicidal effect grade, K: Lolium multiflorum Lam. [14]	Herbicidal effect grade, Q: Galium spurium [15]	L: Apera spica-venti, herbicidal effect grade [16]	Effect on crop grade, f: beet [17]	O: Chenopodium album, herbicidal effect grade [18]	M: Abutilon theophrasti, herbicidal effect grade [19]	other results
CC(CC1CC(OC(=O)COc2ccccc2)=C(c2c(C)cc(-c3ccc(Cl)cc3)cc2C)C1=O)=NOCC(F)(F)F (mixture of isomers) [9-027]	3 (Herbicidal ratio of 40% or higher and lower than 70%)	5 (Herbicidal ratio of 90% or more (almost completely withered))	5 (Herbicidal ratio of 90% or more (almost completely withered))	3 (Herbicidal ratio of 40% or higher and lower than 70%)	0 (Herbicidal ratio of 5% or lower (almost no effect))	0 (Herbicidal ratio of 5% or lower (almost no effect))	2 (Herbicidal ratio of 20% or higher and lower than 40%)	5 (Herbicidal ratio of 90% or more (almost completely withered))	5 (Herbicidal ratio of 90% or more (almost completely withered))	0 (Herbicidal ratio of 5% or lower (almost no effect))	5 (Herbicidal ratio of 90% or more (almost completely withered))	5 (Herbicidal ratio of 90% or more (almost completely withered))	3 (Herbicidal ratio of 40% or higher and lower than 70%)	5 (Herbicidal ratio of 90% or more (almost completely withered))	0 (Herbicidal ratio of 5% or lower (almost no effect))	5 (Herbicidal ratio of 90% or more (almost completely withered))	0 (Herbicidal ratio of 5% or lower (almost no effect))	2 (Herbicidal ratio of 20% or higher and lower than 40%)	0 (Herbicidal ratio of 5% or lower (almost no effect))	
CON=C(CC1CC(O)=C(c2c(C)cc(-c3ccccc3)cc2C)C1=O)C1CC1 (mixture of isomers) [9-028]	0 (Herbicidal ratio of 5% or lower (almost no effect))	5 (Herbicidal ratio of 90% or more (almost completely withered))	5 (Herbicidal ratio of 90% or more (almost completely withered))	5 (Herbicidal ratio of 90% or more (almost completely withered))	4 (Herbicidal ratio of 70% or higher and lower than 90%)	0 (Herbicidal ratio of 5% or lower (almost no effect))	4 (Herbicidal ratio of 70% or higher and lower than 90%)	5 (Herbicidal ratio of 90% or more (almost completely withered))	4 (Herbicidal ratio of 70% or higher and lower than 90%)	0 (Herbicidal ratio of 5% or lower (almost no effect))	5 (Herbicidal ratio of 90% or more (almost completely withered))	5 (Herbicidal ratio of 90% or more (almost completely withered))	3 (Herbicidal ratio of 40% or higher and lower than 70%)	5 (Herbicidal ratio of 90% or more (almost completely withered))	0 (Herbicidal ratio of 5% or lower (almost no effect))	5 (Herbicidal ratio of 90% or more (almost completely withered))	0 (Herbicidal ratio of 5% or lower (almost no effect))	2 (Herbicidal ratio of 20% or higher and lower than 40%)	1 (Herbicidal ratio of 5% or higher and lower than 20%)	
CON=C(C)CC1(C)CC(O)=C(c2c(C)cc(C)cc2C)C1=O (mixture of isomers) [11-002]	0 (Herbicidal ratio of 5% or lower (almost no effect))	5 (Herbicidal ratio of 90% or more (almost completely withered))	0 (Herbicidal ratio of 5% or lower (almost no effect))	2 (Herbicidal ratio of 20% or higher and lower than 40%)	0 (Herbicidal ratio of 5% or lower (almost no effect))	0 (Herbicidal ratio of 5% or lower (almost no effect))	0 (Herbicidal ratio of 5% or lower (almost no effect))	4 (Herbicidal ratio of 70% or higher and lower than 90%)	5 (Herbicidal ratio of 90% or more (almost completely withered))	0 (Herbicidal ratio of 5% or lower (almost no effect))	5 (Herbicidal ratio of 90% or more (almost completely withered))	1 (Herbicidal ratio of 5% or higher and lower than 20%)	0 (Herbicidal ratio of 5% or lower (almost no effect))	5 (Herbicidal ratio of 90% or more (almost completely withered))	0 (Herbicidal ratio of 5% or lower (almost no effect))	5 (Herbicidal ratio of 90% or more (almost completely withered))	0 (Herbicidal ratio of 5% or lower (almost no effect))	0 (Herbicidal ratio of 5% or lower (almost no effect))	0 (Herbicidal ratio of 5% or lower (almost no effect))	
CC(CC1CC(O)=C(c2c(C)cc(C)cc2C)C1=O)=NOCc1ccccc1Cl (stereo not drawn) [1-113]				3 (Herbicidal ratio of 40% or higher and lower than 70%)	0 (Herbicidal ratio of 5% or lower (almost no effect))															O: Chenopodium album, herbicidal effect grade ([1]; 320 g/ha): 0 (Herbicidal ratio of 5% or lower (almost no effect)); b: directly sowed rice plant, effect on crop (criteria 0-5) [2]: 4 (Herbicidal ratio of 70% or higher and lower than 90%); F: Digitaria ciliaris, herbicidal effect grade ([3]; 320 g/ha): 1 (Herbicidal ratio of 5% or higher and lower than 20%); d: soybean, effect grade on crop ([6]; 320 g/ha): 0 (Herbicidal ratio of 5% or lower (almost no effect)); R: Veronica persica, herbicidal effect (criteria 0-5) [7]: 4 (Herbicidal ratio of 70% or higher and lower than 90%); L: Apera spica-venti, herbicidal effect grade ([8]; 320 g/ha): 5 (Herbicidal ratio of 90% or more (almost completely withered)); I: Avena fatua, herbicidal effect (criteria 0-5) [9]: 4 (Herbicidal ratio of 70% or higher and lower than 90%); M: Abutilon theophrasti, herbicidal effect grade ([10]; 320 g/ha): 0 (Herbicidal ratio of 5% or lower (almost no effect)); G: Setaria viridis, herbicidal effect grade ([12]; 320 g/ha): 0 (Herbicidal ratio of 5% or lower (almost no effect)); P: Stellaria media, herbicidal effect (criteria 0-5) [13]: 3 (Herbicidal ratio of 40% or higher and lower than 70%); K: Lolium multiflorum Lam., herbicidal effect grade ([14]; 320 g/ha): 5 (Herbicidal ratio of 90% or more (almost completely withered)); Q: Galium spurium, herbicidal effect grade ([15]; 320 g/ha): 0 (Herbicidal ratio of 5% or lower (almost no effect)); L: Apera spica-venti, herbicidal effect (criteria 0-5) [16]: 5 (Herbicidal ratio of 90% or more (almost completely withered)); f: beet, effect grade on crop ([17]; 320 g/ha): 0 (Herbicidal ratio of 5% or lower (almost no effect)); O: Chenopodium album, herbicidal effect (criteria 0-5) [18]: 2 (Herbicidal ratio of 20% or higher and lower than 40%); M: Abutilon theophrasti, herbicidal effect (criteria 0-5) [19]: 1 (Herbicidal ratio of 5% or higher and lower than 20%)
